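Grown in 96-well plates, cells were treated for 48 hours with each compound at five concentrations. Insufficient inhibition: endpoint recorded as highest concentration tested. At the GI50, growth is halved.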 The source made the active and inactive calls. No stated cut-off is given here; in the data, active = GI50 up to about 1.1 µM and inactive = higher.
How the values were obtained:
Assay in all cases: growth of human tumour cells (NCI), 48 h
[1] = tested on: U-251
[2] = tested on: NCI-H226
[3] = tested on: A498
[4] = tested on: SNB-19
[5] = tested on: DLD-1
[6] = tested on: LOX IMVI
[7] = tested on: SK-MEL-2
[8] = tested on: SNB-78
[9] = tested on: RXF 393
[10] = tested on: SW-620
[11] = tested on: SF-295
[12] = tested on: OVCAR-8
[13] = tested on: OVCAR-3
[14] = tested on: HT-29
[15] = tested on: LXFL 529
[16] = tested on: MCF7
[17] = tested on: MDA-MB-435
[18] = tested on: PC-3
[19] = tested on: T47D
[20] = tested on: MDA-N

Measured: GI50

CC1OC(OC2C(OC(=O)[C@]34CCC(C)(C)CC3C3=CCC5[C@@]6(C)C[C@H](O)[C@H](OC7OC(COC8OC(CO)C(O)C(O)C8O)C(O)C(O)C7O)[C@@](C)(C(=O)O)C6CC[C@@]5(C)C3(C)CC4)OCC(O)C2O)C(O)C(O)C1OC1OCC(O)C(O)C1O (stereo not given in full)
inactive: [1] > 100 µM | [2] > 100 µM | [3] > 100 µM | [4] > 100 µM | [5] > 100 µM | [6] > 100 µM | [7] > 100 µM | [8] > 100 µM | [9] > 100 µM | [10] > 100 µM | [11] > 100 µM | [12] > 100 µM | [13] > 100 µM | [14] > 100 µM

[O-][S+]1c2ccccc2N=C(c2ccc3ccccc3c2)CC1c1ccccc1F (stereo not given)
inactive: [1] > 100 µM | [2] 82.2 µM | [3] 22.3 µM | [4] > 100 µM | [5] > 100 µM | [6] > 100 µM | [7] > 100 µM | [9] > 100 µM | [10] > 100 µM | [11] > 100 µM | [15] > 100 µM | [12] > 100 µM | [13] > 100 µM | [14] > 100 µM

COc1ccc(Nc2nnc(-c3nsc4ccccc34)s2)cc1
inactive: [1] > 47.1 µM | [2] 9.46 µM | [3] 3.78 µM | [4] > 53.1 µM | [6] 41.1 µM | [7] 78.7 µM | [8] > 100 µM | [16] 81.3 µM | [9] 26.2 µM | [17] > 100 µM | [10] > 72.9 µM | [11] 10.8 µM | [15] > 100 µM | [18] > 100 µM | [19] 20.1 µM | [20] 76 µM | [12] 49.8 µM | [13] 63 µM | [14] 39 µM

O=C(NS(=O)(=O)c1ccccc1)C(Cc1ccccc1)C(Cc1ccccc1)C(=O)NS(=O)(=O)c1ccccc1 (stereo not given)
inactive: [1] > 100 µM | [2] 62.4 µM | [3] > 100 µM | [4] > 100 µM | [5] > 100 µM | [6] > 100 µM | [7] > 100 µM | [9] > 100 µM | [10] > 100 µM | [11] > 100 µM | [15] > 100 µM | [12] > 100 µM | [13] > 100 µM | [14] > 100 µM

O=S1(=O)CSc2ccc3ccccc3c2-c2c1ccc1ccccc21
inactive: [1] > 100 µM | [4] > 100 µM | [5] > 100 µM | [6] > 100 µM | [8] > 100 µM | [9] > 100 µM | [10] > 100 µM | [11] > 100 µM | [15] > 100 µM | [12] > 100 µM | [13] > 100 µM | [14] > 100 µM

COC(=O)N/N=C(\C)CC(=O)Nc1cccc([N+](=O)[O-])c1
inactive: [1] > 100 µM | [2] > 100 µM | [5] > 100 µM | [6] > 100 µM | [7] > 100 µM | [8] > 100 µM | [9] > 100 µM | [10] > 100 µM | [11] > 100 µM | [15] > 100 µM | [12] > 100 µM | [13] > 100 µM | [14] > 100 µM

CC(C)=CCc1c2c(c3occ(-c4ccc(O)cc4)c(=O)c3c1O)CC(C(C)(C)O)O2 (stereo not given) [SENEGALENSIN]
inactive: [1] 13.2 µM | [2] 20.3 µM | [3] 16.1 µM | [4] 16.4 µM | [6] 14.9 µM | [7] 14.6 µM | [16] 12.8 µM | [9] 13.6 µM | [17] 16.6 µM | [10] 21.7 µM | [11] 12.1 µM | [18] 13.8 µM | [19] 10.3 µM | [20] 21.4 µM | [12] 17 µM | [13] 14.4 µM | [14] 12 µM

O=C1C(NCCc2cc(Br)c(O)c(Br)c2)=CC(=O)c2ncccc21
inactive: [1] 5.55 µM | [2] 2.29 µM | [3] 4.08 µM | [4] 3.86 µM | [6] 1.78 µM | [7] 8.07 µM | [16] 4.09 µM | [9] 7.93 µM | [17] 1.69 µM | [10] 4.24 µM | [11] 2.34 µM | [18] 20.9 µM | [19] 13.5 µM | [20] 1.82 µM | [12] 3.85 µM | [13] 1.84 µM | [14] 3.63 µM

Cc1c2n(c3ccccc13)CC1C2N(C)OC1(C)C (stereo not given)
inactive: [1] > 10 µM | [2] > 100 µM | [4] > 100 µM | [5] > 100 µM | [7] > 100 µM | [8] > 100 µM | [11] > 100 µM | [12] > 100 µM | [13] > 100 µM | [14] > 100 µM

From ChEMBL document CHEMBL1201862, “PubChem BioAssay data set” (2004)
